Values joined by “and” are separate entries in the source; they are usually repeats but may differ in a detail not shown here. Identical values can stand only once.
Key:
Format in all cases: in vivo, human
[1] = tested on: Osteoarthritis; experiment: Phase 2 study: effect of treatment on sign and symptoms of osteoarthritis at 12 weeks (re-analysis, all patients taken as active); details: scale 0 to 100; for Mean ± SEM WOMAC Osteoarthritis Index Composite Score Change from Baselines: 8 sprays/knee (35 mg, BID) transdermally; for Mean ± SEM WOMAC Osteoarthritis Index Composite Score Change from Baselines, adjusted by […] of the testing drug amount: 8 sprays/knee (35 mg, BID)
Source text: (William G. Bensen, Justus J. Fiechtner, James 1. McMillen, et. al. Treatment of Osteoarthritis with Celecoxib. Mayo Clin Proc, November 1999. Vol 74, 1095-1105.)

[2] = tested on: osteoarthritis of the knee; experiment: Second Phase 2 study: WOMAC stiffness subscale score; details: Low Dose (2 spray/knee, 8.75 mg/knee) Cohort
[3] = tested on: Mild to Moderate Osteoarthritis of the Knee; experiment: Phase 2 study: physician's global assessment of disease status
Source text: 3.9.3. Exploratory Efficacy Endpoints: • 1. Subject's global assessment of disease status of the target knee at 2, 4, 8, and 12 weeks of treatment; • 2. Investigator's global assessment of disease status of the target knee at 2, 4, 8, and 12 weeks of treatment; • 3. Subject's global assessment of response to therapy of the target knee at 2, 4, 8, and 12 weeks of treatment; • 4. Investigator's global assessment of response to therapy of the target knee at 2, 4, 8, and 12 weeks of treatment; • 5. Change from Baseline over time in VAS pain scores for the target knee from Daily Diary data; • 6. Amount of rescue medication (acetaminophen) consumed per day for target knee pain.
Data for the exploratory efficacy endpoints will be summarized using descriptive statistics.

[4] = tested on: healthy male and female volunteers; experiment: Phase 1 clinical study: safety (adverse events, laboratory, vital signs, ECG); details: for Subjects with at least one TEAE: N = 8
Source text: Safety assessments included monitoring of adverse events (AEs), vital signs (blood pressure, pulse rate, respiratory rate and oral temperature), clinical laboratory findings, resting 12-lead electrocardiogram (ECG) results, skin irritation assessments and physical examination findings.
Safety endpoints consist of all AEs, clinical laboratory test results, ECG, physical examination and vital sign assessments and skin irritation assessments.
Safety summaries are provided for all subjects in the safety population. Data from subjects in each cohort who received placebo treatment were pooled. AE data, clinical laboratory test results, ECG, skin irritation and vital signs data are presented descriptively using summary tables and listings. Change from baseline in vital signs, ECG and clinical laboratory results are presented descriptively using summary tables and listings. Physical examination findings are listed by subject.
Samples for clinical laboratory safety tests (chemistry, hematology, urinalysis) were obtained at the screening visit, Day −1, Day 4, Day 13 and prior to discharge from the study on Day 17 or at early termination. Any clinical laboratory findings considered to be clinically significant were recorded as AEs.
Systolic and diastolic blood pressure (mmHg) and pulse rate (beats per minute), respiratory rate (breaths per minute) and oral temperature (° C.) were measured after at least 5 minutes at rest in the seated position at the screening visit, at admission on Day −1, Day 5 and Day 13, and prior to and 1 hour following each dose administration.
A physical examination was performed at the screening visit and on Day 13, or at early termination, and included assessment of the following body systems: general appearance, dermatological, head, eyes, ears, nose and throat, neck, lymph nodes, lungs, heart, abdomen, neurological and musculoskeletal.
A resting 12-lead ECG was recorded after at least 5 minutes of rest at the screening visit and on Day 13, or at early termination. The ECG parameters recorded include ventricular rate (bpm), PR interval (msec), QRS duration (msec), QT interval (msec), and QTc interval (msec). QTc interval was calculated at the clinic using a formula internal to the ECG equipment (Mortara).

[5] = N = 8 each, dose by column: c1 17.5, c2 35, c3 70, c4 140, c5 280 mg topical, c6 70 mg spray

## CCN(CC)CCOC(=O)C(C)c1ccc(CC(C)C)cc1 (centres unmarked) [2-(diethylamino)ethyl 2-(4-isobutylphenyl)propionate]
[1]; Week 4
  Mean ± SEM WOMAC Osteoarthritis Index Composite Score Change from Baselines: −17.0 ± 2.96
  Mean ± SEM WOMAC Osteoarthritis Index Composite Score Change from Baselines, adjusted by […] of the testing drug amount: −29.2 ± 5.08
[1]; Week 8
  Mean ± SEM WOMAC Osteoarthritis Index Composite Score Change from Baselines: −21.7 ± 3.28
  Mean ± SEM WOMAC Osteoarthritis Index Composite Score Change from Baselines, adjusted by […] of the testing drug amount: −37.2 ± 5.63
[1]; Week 12
  Mean ± SEM WOMAC Osteoarthritis Index Composite Score Change from Baselines: −23.0 ± 3.27
  Mean ± SEM WOMAC Osteoarthritis Index Composite Score Change from Baselines, adjusted by […] of the testing drug amount: −39.5 ± 5.61
[1]; Follow-up (Week 13)
  Mean ± SEM WOMAC Osteoarthritis Index Composite Score Change from Baselines, adjusted by […] of the testing drug amount: −37.9 ± 5.54
[1]; Week 2
  Mean ± SEM WOMAC Osteoarthritis Index Composite Score Change from Baselines, adjusted by […] of the testing drug amount: −20.1 ± 4.94
[2]; Avg. of all patients (blinded), Follow-up
  WOMAC Joint Stiffness Subscale Score, Follow-up, Avg.: 41.4
[2]; individual patient (blinded), Day 1
  WOMAC Joint Stiffness Subscale Score, Day 1: 60.5
[2]; individual patient (blinded), Week 8
  WOMAC Joint Stiffness Subscale Score, Week 8: 64.5
[3]; 8.75 mg/knee (BID)
  Physician's Global Assessment of Disease Status: Improved (percentage of patients who improved by 2 grades or more from baseline, or from 1 to 0): 10.5%
  Physician's Global Assessment of Disease Status: Worsened (percentage of patients who worsened by 2 grades or more from baseline, or from 3 to 4): 1.8%
  patients improved by 2 grades or more from baseline (physician's global assessment): 10.5%
[3]; 17.5 mg/knee (BID)
  Physician's Global Assessment of Disease Status: Improved (percentage of patients who improved by 2 grades or more from baseline, or from 1 to 0): 35.6%
  Physician's Global Assessment of Disease Status: Worsened (percentage of patients who worsened by 2 grades or more from baseline, or from 3 to 4): 1.7%
[3]; 35 mg/knee (BID)
  Physician's Global Assessment of Disease Status: Improved (percentage of patients who improved by 2 grades or more from baseline, or from 1 to 0): 30.9%
  Physician's Global Assessment of Disease Status: Worsened (percentage of patients who worsened by 2 grades or more from baseline, or from 3 to 4): 0%
[4]; 17.5 mg topical
  Subjects with at least one TEAE: 1 (12.5%) n (%) and 1 (12.5) n (%)
[4]; 35 mg topical
  Headache, subjects: 2 (25.0%)
  Subjects with at least one TEAE: 3 (37.5%) n (%) and 3 (37.5) n (%)
[4]; 70 mg spray
  Subjects with at least one TEAE: 2 (25.0%) n (%) and 2 (25.0) n (%)
[4]; 70 mg topical
  Subjects with at least one TEAE: 1 (12.5%) n (%) and 1 (12.5) n (%)
[4]; 140 mg topical
  Headache, subjects: 1 (12.5%)
  Subjects with at least one TEAE: 1 (12.5%) n (%) and 1 (12.5) n (%)
[4]; 280 mg topical
  Subjects with at least one TEAE: 1 (12.5%) n (%) and 1 (12.5) n (%)
[4]; 17.5-280 mg topical and 70 mg spray, single and multiple doses
  safety and tolerability: safe and well-tolerated
[4]; [5]
  Subjects who discontinued due to an AE: 0
  Subjects with SAEs: 0
  TEAE: Dizziness: 0 n (%)
  TEAE: Vomiting: 0 n (%)
[4]; all dose groups
  intensity of AEs: mild or moderate in intensity
[4]; each of 70 mg topical and 70 mg spray
  aspartate aminotransferase (ast) increased, subjects: 1 (12.5%)
[4]; each of 70 mg, 280 mg topical and 70 mg spray
  alanine aminotransferase (ALT) increased, subjects: 1 (12.5%)
[4]; human, in vivo
  ECG parameters: no clinically significant ECG parameter values
  deaths: No subjects died
  laboratory findings vs dose: no apparent trends or dose relationship
  vital signs: no clinically significant vital sign values

Reference: US20240024273A1, “TOPICAL ADMINISTRATION OF 2-(DIETHYLAMINO)ETHYL 2-(4-ISOBUTYLPHENYL)PROPRIONATE FOR TREATMENT OF DISEASES” (TECHFIELDS PHARMA CO., LTD., priority 2020, published 2024)
